# Test results published in ChEMBL document CHEMBL3044708, “The trifluoromethyl transformation synthesis, crystal structure and insecticidal activities of novel 2-pyrrolecarboxamide and 2-pyrrolecarboxlate” (2012).
# How the values were obtained:
# Assay type in all cases: functional
# [1] = system: Tetranychus cinnabarinus; assay: Acaricidal activity against Tetranychus cinnabarinus (carmine spider mite) eggs assessed as mortality at 200 mg/L; conditions: Egg
# [2] = system: Mythimna separata; assay: Insecticidal activity against Mythimna separata (Oriental armyworm) assessed as mortality at 200 mg/L
# [3] = system: Tetranychus cinnabarinus; assay: Acaricidal activity against Tetranychus cinnabarinus (carmine spider mite) assessed as mortality at 200 mg/L
# [4] = system: Tetranychus cinnabarinus; assay: Acaricidal activity against Tetranychus cinnabarinus (carmine spider mite) larvae assessed as mortality at 200 mg/L
# [5] = system: Mythimna separata; assay: Insecticidal activity against Mythimna separata (Oriental armyworm) assessed as mortality at 25 mg/L
# [6] = system: Mythimna separata; assay: Insecticidal activity against Mythimna separata (Oriental armyworm) assessed as mortality at 100 mg/L
# [7] = system: Mythimna separata; assay: Insecticidal activity against Mythimna separata (Oriental armyworm) assessed as mortality at 50 mg/L
# [8] = system: Tetranychus cinnabarinus; assay: Acaricidal activity against Tetranychus cinnabarinus (carmine spider mite) assessed as mortality at 100 mg/L
# [9] = system: Tetranychus cinnabarinus; assay: Acaricidal activity against Tetranychus cinnabarinus (carmine spider mite) eggs assessed as mortality at 100 mg/L; conditions: Egg
# [10] = system: Tetranychus cinnabarinus; assay: Acaricidal activity against Tetranychus cinnabarinus (carmine spider mite) larvae assessed as mortality at 100 mg/L
SMILES,mortality at 200 µg/mL [1],mortality at 200 µg/mL [2],mortality at 200 µg/mL [3],mortality at 200 µg/mL [4],mortality at 25 µg/mL [5],mortality at 100 µg/mL [6],mortality at 50 µg/mL [7],mortality at 100 µg/mL [8],mortality at 100 µg/mL [9],mortality at 100 µg/mL [10]
N#Cc1cc(C(=O)Nc2ccc(C(F)(F)F)cc2)[nH]c1-c1ccc(Br)cc1,0%,0%,0%,0%,,,,,,
N#Cc1cc(C(=O)Nc2ccc(C(F)(F)F)cc2)[nH]c1-c1ccc(Cl)cc1,0%,0%,0%,0%,,,,,,
N#Cc1c(-c2ccc(Cl)cc2)[nH]c(C(=O)Nc2ccc(C(F)(F)F)cc2)c1Br,0%,0%,0%,0%,,,,,,
N#Cc1c(-c2ccc(Cl)cc2)[nH]c(C(=O)NC2CCCCC2)c1Br,0%,80%,0%,0%,,,,,,
CCN(CC)C(=O)c1[nH]c(-c2ccc(Cl)cc2)c(C#N)c1Br,0%,0%,0%,0%,,,,,,
N#Cc1c(-c2ccc(Cl)cc2)[nH]c(C(=O)NCc2ccccc2)c1Br,0%,0%,0%,0%,,,,,,
COC(=O)c1[nH]c(-c2ccc(Cl)cc2)c(C#N)c1Br,0%,100%,60%,40%,0%,100%,40%,,,
CCOC(=O)c1[nH]c(-c2ccc(Cl)cc2)c(C#N)c1Br,81%,100%,78%,76%,0%,100%,60%,40%,54%,52%
N#Cc1c(-c2ccc(Cl)cc2)[nH]c(C(=O)OCc2ccccc2)c1Br,0%,100%,0%,0%,0%,100%,100%,,,
N#Cc1c(-c2ccc(Cl)cc2)[nH]c(C(F)(F)F)c1Br,100%,100%,100%,100%,100%,100%,100%,100%,100%,100%
CCOCn1c(-c2ccc(Cl)cc2)c(C#N)c(Br)c1C(F)(F)F [CHLORFENAPYR],100%,100%,100%,100%,100%,100%,100%,100%,100%,100%
